Consider 22 compounds from patent US4939133A, “N-substituted-2-hydroxy-α-oxo-benzeneacetamides and pharmaceutical compositions having activity as modulators of the arachidonic acid cascade” (Warner-Lambert Company, priority 1985, dated 1990).

Broadly, the IC50 is the concentration needed to halve the response being measured.

Assay [1] deals with Human Leukocyte Lipoxygenase. Nature of the assay: Human Leukocyte Lipoxygenase Assay (LDA-H / LDAH). It counts as biochemical. The conditions noted are these: for IC50: 50% reduction of reaction rate vs control, E -number means X 10^-no. On the procedure: Human Leukocyte Lipoxygenase Assay (LDA-H)
Whole blood is collected from normal volunteers and spun in a refrigerated centrifuge for four minutes at 1°-6° C. at 3800 g. The buffy coat is manually separated and washed twice with chilled 0.83% NH4 Cl and centrifuged at 1000 RPM for ten minutes at 4° C. The white cell is suspended in culture media-EMEM supplemented with 6% Agamma human serum, tricine buffer, and neomycin and recentrifuged at 1000 g to yield a pellet containing the leukocytes used for the preparation of the acetone pentane powder.
The acetone-pentane powder is prepared utilizing a modification of the procedure reported for human platelet lipoxygenase. See Siegel, et al, Arachidonate Metabolism via Lipoxygenase and 12-L-hydroperoxy-5-Eicostetraenoic acid Peroxidase Sensitive to Antiinflammatory Drugs, Proc. Natl. Acad. Sci., USA 77:308, 1980 and D. P. Wallach and V. R. Brown, a novel Preparation of Human Platlet Lipoxygenase, Biochem. Biophys. Acta. 663:361, 1981. Buffy coat prepared above is resuspended in 5-7 volumes of cold 0.1M Tris buffer, pH 7.4 containing 0.154M NaCl. The suspension is centrifuged at 13,300 g for ten minutes at 4° C. The resultant pellet was retained, resuspended in five volumes of cold acetone, recentrifuged at 13,300 g and resuspended in five volumes of cold pentane. The pentane suspension is centrifuged for ten minutes at 13,300 g to give a pellet which is dried in the cold under vacuum with periodic pulverization. The dry powder is stable for several weeks when stored at -88° C.
Enzyme stock solution is prepared in the following manner. About 15 mg of the acetone-pentane powder sis suspended in 4 ml of cold tris buffer (0.1M, pH 7.4), allowed to stand for five minutes, and homogenized thorougly. The homogenate is sonicated three times for 15 seconds each time, diluted to 7 ml with cold tris buffer (0.1M, pH 7.4), and centrifuged at 4° C. for 60 minutes at 13,300 g. The supernatent is retained and diluted to a total of 10 ml with cold tris buffer (0.1M, pH 7.4) to give the stck enzyme solution. Additional dilutions of 2-50 fold are done as necessary to locate optimal enzyme reaction rate in the assay described below.
Substrate solution is prepared at 100 μM or 1.0 μM concentrations of arachidonic acid or linoleic acid in 0.1M tris buffer, pH 9.0 containing 20% ethanol.
The enzyme reaction is followed spectrophotometrically by the appearance of a conjugated diene product at 234 nm. The reaction is monitored at 24° C. using a Gilford Model 2600 spectrophotometer. […] The effects of inhibitors on the reaction are compared with control reactions run under indentical conditions. Routinely, each compounds of the present invention is incubated with the enzyme for five minutes prior to addition of substrate to initiate the reaction. Inhibition expressed as IC50 as molar concentration of the compound required to reduce reaction rate to 50% control.

In assay [2] the target is T1, human leukocyte 5-lipoxygenase (Homo sapiens, UniProt P09917).
T1 construct: endogenous in cells; host or cells: leukocytes from fresh blood of normal adult men
T1 sequence (P09917 1-674): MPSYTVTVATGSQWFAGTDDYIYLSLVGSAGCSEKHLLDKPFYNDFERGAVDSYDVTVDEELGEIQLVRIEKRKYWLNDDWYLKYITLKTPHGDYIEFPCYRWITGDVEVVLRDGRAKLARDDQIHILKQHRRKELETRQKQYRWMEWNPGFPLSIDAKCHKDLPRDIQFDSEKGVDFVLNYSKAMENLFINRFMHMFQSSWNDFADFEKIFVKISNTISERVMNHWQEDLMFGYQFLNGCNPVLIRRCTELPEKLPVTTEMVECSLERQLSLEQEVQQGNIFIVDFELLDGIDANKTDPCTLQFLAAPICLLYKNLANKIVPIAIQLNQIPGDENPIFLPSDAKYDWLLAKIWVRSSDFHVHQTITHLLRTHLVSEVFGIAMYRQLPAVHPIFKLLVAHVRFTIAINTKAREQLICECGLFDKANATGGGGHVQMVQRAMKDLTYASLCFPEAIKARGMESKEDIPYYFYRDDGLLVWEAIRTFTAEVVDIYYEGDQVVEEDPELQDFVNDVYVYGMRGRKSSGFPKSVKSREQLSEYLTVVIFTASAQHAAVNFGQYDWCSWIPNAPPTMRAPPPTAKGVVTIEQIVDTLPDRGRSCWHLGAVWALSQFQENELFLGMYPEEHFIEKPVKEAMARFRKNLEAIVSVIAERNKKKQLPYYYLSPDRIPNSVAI
Nature of the assay: 5-Lipoxygenase inhibition in human leukocytes, 5-HETE formation (5LOA1, 5LOA in Table 6). The format is cell-based. The conditions noted are these: 50% inhibition of 5-HETE formation, E -number means X 10^-no. The text has this:
To Evaluate the Effect of Each Compounds as a 5-Lipoxygenase Inhibitor in Comparison to Standard Reference Agents in Human Leukocytes (5LOAl)
The purpose of this assay is to evaluate the activity of each compound as an inhibitor of human leukocyte 5-lipoxygenase.
Arachidonic acid and calcium ionophore A23187 are obtained from Sigma (St. Louis, MO). Silica gel plates, GF are obtained from Analtech (Newark, DE). Arachidonic acid, (1-^14 C) and 5-HETE (^3 H), 5-(S)-hydroxy-6-trans, 8,11,14-cis eicosatetraenoic acid, are obtained from New England Nuclear (Boston, MA). Six percent Dextran-70 in 0.9% NaCl is obtained from Cuffer Labs (Berkeley, CA).
Preparation of Leukocytes
Fresh blood from normal adult men who had not received any drugs for at least the previous five days is obtained by the Community Research Clinic (WL/PD) using venipuncture and collected into heparinized vacuotainer tubes. To every 100 ml of pooled blood is added 25 ml of dextran solution (6% dextran -70 in 0.9% sodium chloride containing 3% dextrose) and this is mixed gently in a plastic cylinder. The mixture is left to stand at room temperature for at least 90 minutes. The upper layer which is rich in leukocytes and platelets is then carefully decanted into 50 ml plastic tubes and centrifuged at about 100×g for eight minutes in and IEC centrifuge and rotor number 269 (about 600 rpm). The supernatant fluid is discarded and the pellet is resuspended in 10 ml of 0.87% ammonium chloride for exactly two minutes. This procedure is to lyse completely contaminating red blood cells. Leukocytes are then separated by centrifugation for ten minutes. The pellet is washed three times by suspension in 20 ml PBS (sodium chloride, 7.1 g; Na2 HPO4, 1.15 g; KH2 PO4,0.2 g, and KCl, 0.2 g/L) and centrifuged as before. The final pellet is suspended in PBS containing 0.87 mM CaCl2. Viability of the cells is then checked using trypan blue exclusion method and is found to be over 90%.
5-Lipoxygenase Enzyme Assay
Leukocyte cells in suspension (0.98 ml) are incubated with or without test compounds for five minutes at 37° C. in a shaking water bath. At this time a […] mixture is perpared per 1 ml of cell suspension: 100 mM arachidonic acid, 1 μl, 0.05 μCi ^14 C-arachidonic acid in 5 μl; 1 mM calcium ionophore A23187, 10 μl (1). This mixture is added and the incubation continued for five minutes. The reaction is stopped by adding four volumes of absolute ethanol and the mixture is kept in ice for 30 minutes. The floculated precipitate is separated by centrifugation at about 37,000×g for 20 minutes (Beckman Instruments rotor number 40). The alcohol extract is taken to dryness under a stream of nitrogen and the residue is dissolved in 100-200 μl absolute ethanol. At the time any turbidity is removed by centrifugation. An aliquot (25-50 μl) is applied onto 20×20 cm silica gel TLC plate and developed using the following solvent system: diethyl ether, petroleum ether (2040°C.),acetic acid (50:50: 1 v/v). Zones of 1 cm apart are scraped from the TLC plate and transferred to mini-vials. Methanol (0.5 ml) is added to dissolve the radioactivity adsorbed to the silica gel and scintillation fluid (H. P., Beckman), 5 ml is then added and vials are counted in a liquid scintillation counter. A sample of ^3 H-5-HETE is applied and used for the identification of the formed 5-HETE. Total radioactivity in the test as well as the control samples are normalized and the amount of 5-HETE present is calculated accordingly.
IC50 values are defined as the concentrations of test agents which caused a 50% inhibition of the formation of 5-HETE as compared to control and are determined by inspection of the concentration-response curves.

Structures are written as SMILES. Several values for one entry are separate records, joined by “and”; a condition that tells them apart may be missing. Equal values may be shown once. Read-outs that look alike come from different tables or passages of the source.

For `CCCCCCCCCCc1ccc(NC(=O)c2ccc(Cl)cc2O)cc1` [Example 7], half-maximal inhibition in assay [1] (IC50) required 2.8 µM.

In the case of `COc1ccc(CCc2ccc(NC(=O)C(=O)c3ccccc3O)cc2)cc1OC` [Example 52, N-[4-(2-(3,4-dimethoxyphenyl)ethyl)phenyl]-2-hydroxy-α-oxo-Benzeneacetamide], the IC50 in assay [1] worked out at 0.184 µM; in assay [2] (read-out: IC50 (5LOA)), 5 µM.

Turning to `O=C(Nc1ccc(CCc2ccc(O)c(O)c2)cc1)c1ccccc1O` [Example 47, Benzamide, N-[4-[2-(3,4-dihydroxyphenyl)ethyl]phenyl]-2-hydroxy], the “% Inhibition (LDAH)” value in assay [1] (2.50 E -5 M) was determined as 0.0%.

As for `COc1ccc(CCc2ccc(N(C)C(=O)C(=O)c3ccccc3O)cc2)cc1OC` [Example 51, N-Methyl-N-[4-(2-(3,4-dimethoxyphenyl)ethyl)phenyl]-2-hydroxy-α-oxo-benzeneacetamide], in assay [2] (read-out: IC50 (5LOA)), the IC50 amounted to 11.1 µM.

Take `COc1ccc(CCc2ccc(NC(=O)C(=O)c3cccc(Cl)c3O)cc2)cc1OC` [Example 60, 3-chloro-N-[4-[2-(3,4-dimethoxyphenyl)ethy]-phenyl]-2-hydroxy-α-oxo-benzenacetamide]: the IC50 in assay [1] stood at 120 µM.

As for `CCCCCCCCCCc1ccc(NC(=O)c2cc([N+](=O)[O-])ccc2O)cc1` [Example 21, N-(4-n-decylphenyl)-2-hydroxy-5-nitro-benzamide], the IC50 in assay [2] (IC50 (5LOA)) amounted to 20.8 µM.

With `O=C(Nc1ccc(CCc2ccc(Cl)c(Cl)c2)cc1)c1ccc(Cl)cc1O` [Example 36], the “% Inhibition (LDAH)” value in assay [1] (2.50 E -5 M) is recorded as 0.0%.

`COc1ccc(CCc2ccc(NC(=O)c3cccc(Cl)c3O)cc2)cc1OC` [Example 23] gave an IC50 in assay [1] of 4.1 µM.

In the case of `Cc1ccc(C(=O)N(C)c2ccc(CCc3ccc(O)c(O)c3)cc2)c(O)c1` [Example 43], the IC50 in assay [2] (read-out: IC50 (5LOA)) was 5.3 µM.

In the case of `O=C(Nc1ccc(CCc2ccc(Cl)c(Cl)c2)cc1)c1cccc(Cl)c1O` [Example 34], the IC50 in assay [2] (read-out: IC50 (5LOA)) was 39.2 µM.

`COc1ccc(CCc2ccc(NC(=O)C(=O)c3cccc(C(C)(C)C)c3O)cc2)cc1OC` [Example 54, N-[4-[2-(3,4-dimethoxyphenyl)ethyl]phenyl]-3-(1,1-dimethylethyl)-2-hydroxy-α-oxo-benzeneacetamide] had an IC50 in assay [1] of 0.28 µM.

Consider `O=C(Nc1ccc(CCc2ccc(O)c(O)c2)cc1)C(=O)c1ccccc1O` [Example 53, N-[4-[2-(3,4-dihydroxyphenyl)ethyl]-phenyl]-2-hydroxy-α-oxo-benzeneacetamide], for which the IC50 in assay [1] came to 17 µM; in assay [2] (read-out: IC50 (5LOA)), 3.38 µM.

For the compound `COc1ccc(CCc2ccc(NC(=O)c3cc4ccccc4cc3O)cc2)cc1OC` [Example 38], the “% Inhibition (LDAH)” value in assay [1] (2.50 E -5 M) is listed as 0.0%.

Turning to `CCCCCCCCCCc1ccc(NC(=O)c2ccccc2O)cc1` [Example 13], in assay [1] (2.50 E -5 M), the “% Inhibition (LDAH)” value is recorded as 0.0%.

In assay [1], `COc1cc(CCc2ccc(NC(=O)c3ccc(C)cc3O)cc2)ccc1O` [Example 26] showed an IC50 of 24 µM.

For the compound `COc1ccc(CCc2ccc(NC(=O)c3ccccc3O)cc2)cc1OC` [Example 48, N-[4-[2-(3,4-dimethoxyphenyl)ethyl]phenyl]-2-hydroxybenzamide], the “% Inhibition (LDAH)” value in assay [1] (2.50 E -5 M) is given as 0.0%. In addition, in assay [2] (read-out: IC50 (5LOA)), the 50% inhibitory concentration (IC50) is 4.2 µM and 3.5 µM.

In assay [1], `CCCCCCCCCCc1ccc(NC(=O)c2cccc(C)c2O)cc1` [Example 22] had an IC50 of 0.68 µM.

As to `COc1ccc(C(=O)Nc2ccc(CCc3ccc(O)c(O)c3)cc2)c(O)c1` [Example 8, N-[4-[2-(3,4-Dihydroxyphenyl)ethyl]phenyl]-2-hydroxy-4-methoxybenzamide], in assay [2] (read-out: IC50 (5LOA)), the IC50 turned out to be 7.1 µM.

With `CCCCCCCCCCc1ccc(NC(=O)c2c(O)cccc2O)cc1` [Example 25], the “% Inhibition (LDAH)” value in assay [1] (8.00 E -5 M) came out at 0.0%.

As for `CC(C)(C)c1cccc(C(=O)C(=O)Nc2ccc(CCc3ccc(O)c(O)c3)cc2)c1O` [Example 55, N-[4-[2-(3,4-dihydroxyphenyl)ethyl]phenyl]-3-(1,1-dimethylethyl)-2-hydroxy-α-oxobenzenacetamide], the IC50 in assay [1] is 3.9 µM; in assay [2] (read-out: IC50 (5LOA)), 7.1 µM and 8.17 µM.

With `CCCCCCCCCCc1ccc(NC(=O)c2cc(Br)ccc2O)cc1` [Example 12], the “% Inhibition (LDAH)” value in assay [1] (2.50 E -5 M) amounted to 0.0%.

Consider `CCCCCCCCCCc1ccc(NC(=O)c2cc3ccccc3cc2O)cc1` [Example 49, 2-Naphthalenecarboxamide, N-(4-decylphenyl)-3-hydroxy], for which the “% Inhibition (LDAH)” value in assay [1] (2.50 E -5 M) was 0.0%.
